Results taken from patent US8058039B2 (North American Bioproducts Corporation, priority 2008, dated 2011).
Values joined by “and” are separate entries in the source; they are usually repeats but may differ in a detail not shown here. Equal entries are not always repeated.

Key:
Type in all cases: cell-based
[1] = test system: Saccharomyces cerevisea yeast (BioFerm XR yeast); assay: Impact of Erythromycin on the function and replication of yeast during lab scale corn mash fermentation; conditions: for Cell Count: number of cells in a given area
Method: A study was conducted to determine if the fermentation antimicrobial Erythromycin, interfered with cell growth and the fermentation function of Saccharomyces cerevisea yeast used in the fermentation phase of the production of fuel ethanol. […] This study looked at the ability of yeast to replicate and ferment a corn mash substrate with and without the presence of Erythromycin.
This study was set up in a series of fermentation vessels. All antibiotic concentrations were tested in triplicate. Cell counts were done on one flask for each treatment at 24 and 48 hours and final testing of the fermentation reactions by HPLC was performed at 48 hours. The experiment was set as follows:
1. Antibiotic solutions were prepared to provide a sterile 1 and 10 μg/ml solutions.
2. Antibiotic solutions tested were as follows:
A. Control (NA), no antibiotic
3. Fermentations were set up using 31% solids corn mash using saccharifying enzymes and the following procedure:
A. Yeast Conditioning: • 1. Add 2 g yeast to 10 mil sterile water for each 3 flasks to test, (10 g yeast to 50 ml water) into a sterile 250 ml flask and place in water bath set to 100° F. • 2. Incubate at 100° F. for 30 minutes with occasional mixing. • 3. Remove flasks from water bath and divide suspension between the all flasks for the trial.
B. Fermentation Procedure • 1. To prepared mash, add the following. • a. Add 0.58 g urea/liter mash and mix. • b. Add 0.2 ml GA per liter and mix. • 2. Remove sample for background HPLC testing. • 3. Add antibiotic solution to labeled sterile 250 ml flasks. • 4. Add hydrated yeast suspension to mash and mix well. • 5. Add sterile stir bar to each flask and add about 150 ml mash into each 250 ml flask for a total of 12 flasks. • Three flasks for each trial as follows: • a. First group, no antibiotic (NA) flasks 1-3 • b. […] Cover each flask with a gas trap in a sterilized stopper. • 7. Place in a 33° C. water bath with continuous mixing at 280 rpm at 75% power. • a. Turn power on to the magnetic stirrers after placing the flasks onto the platforms to move the stir bars; make sure that mixing is occurring in the flasks. • 8. Remove sample at 24 hours and perform cell count. • 9. Incubate sample for 48 hours, enough time for complete fermentation • 10. Collect samples at the following times for HPLC testing: • 0 hours (one per treatment); 24 hours; 48 hours • Perform 48 hour cell count on same flask as for 24 hour count.

[2] = test system: Pediococcus test organism along with “industry normal” Lactobacillus; assay: Virginiamycin (V100) vs. Erythromycin (V200) comparative efficacy analysis, 24 well plate growth test in MRS broth; conditions: 33° C., read at 24 and 48 hours
Description: (§1) The antibiotics currently most often used at alcohol production plants are either Penicillin-based or Virginiamycin-based. This example compares the use of Bactenix V200, an Erythromycin-based antibiotic versus V100, a Virginiamycin-based antibiotic also available from NABC to control Pediococcus test organism along with “industry normal” Lactobacillus. The trial uses an alcohol water mixture to assure total dissolving of antibiotics. This assures that the correct concentrations of antibiotics are going into the test wells and thereby preventing under dosing during the trial. All bacteria tested were industry specific isolates that were obtained from actual mash samples from alcohol production plants. The trial was set up as follows: • 1. Dissolve 0.1 g of each of the antibiotics in 1 ml water and then add 5 ml of ethanol, vortex and bring up to 10 ml with sterile water to from a suspension. • 2. Dilute the previous suspension 1:10 with sterile water. This gives a one mg/ml concentration. • 3. Filter the suspension by running through a 0.2 μm syringe filter. • 4. Add antibiotics to MRS (DeMan, Rogosa and Sharpe) broth at the concentrations required for the test. • 5. Take two μl of a fresh 24-hour culture of the target organisms and add to the corresponding empty wells in a pre-labeled 24 well tissue culture plate. • 6. Add one ml of the appropriate antibiotic media to each well of the plate. • 7. Incubate at 33° C. for 24 hours. • 8. Read plates for bacterial growth and re-incubate the plates at 33° C. • 9. After 48 hours read and report the final results.

[3] = test system: bacteria encountered in ethanol production; assay: Alcohol production plant trial, fermentor drop data (corn, batch fermentation)
Method: This trial was conducted at a 50 million gallon per year (m/g/y) dry grind fuel alcohol production facility utilizing corn as a fermentation substrate. Batch yeast propagation and fermentation process were utilized. Antimicrobials were added to the fermentor during the fill cycle at approximately 30% fill. No other changes were made to the process or chemical additions that would influence the fermentation kinetics monitored during 3 sets of fermentor batches listed below. The fermentation data was accumulated at the end (drop) of the fermentation process for each of the fermentors. […] See results in Table 2. […] See results in Table 3. […] See results in Table 4.

[4] = test system: industry obtained Pediococcus bacteria; assay: Virginiamycin (V100) vs. Erythromycin (V200) comparative efficacy analysis, 24 well plate growth test in MRS broth; conditions: 33° C., read at 24 and 48 hours
Description: as §1

[5] = 0.5 ppm Erythromycin vs 0.5 ppm Virginiamycin batches
[6] = Set 2 vs Sets 1 and 3, same amount of antibiotic
[7] = Set 2 “Erythromycin trial”, 0.5 ppm Erythromycin, at drop
[8] = Set 1 “Pre Erythromycin trial”, 0.5 ppm Virginiamycin, at drop
[9] = Set 3 “Post Erythromycin test”, 0.5 ppm Virginiamycin, at drop
[10] = Set 3 “Post Erythromycin test”, 0.5 ppm Virginiamycin, single fermentor batch at drop

CC[C@H]1OC(=O)[C@H](C)[C@@H](O[C@H]2C[C@@](C)(OC)[C@@H](O)[C@H](C)O2)[C@H](C)[C@@H](O[C@@H]2O[C@H](C)C[C@H](N(C)C)[C@H]2O)[C@](C)(O)C[C@@H](C)C(=O)[C@H](C)[C@@H](O)[C@]1(C)O [Erythromycin]
% Budding ([1]; Erythromycin 5 ppm, 24 hr): 8%
% Viable ([1]; Erythromycin 5 ppm, 24 hr): 82%
Cell Count ([1]; Erythromycin 5 ppm, 24 hr): 467
% Budding ([1]; Erythromycin 5 ppm, 48 hr): 5%
% Viable ([1]; Erythromycin 5 ppm, 48 hr): 63%
Cell Count ([1]; Erythromycin 5 ppm, 48 hr): 430
% Budding ([1]; Erythromycin 10 ppm, 24 hr): 8%
% Viable ([1]; Erythromycin 10 ppm, 24 hr): 80%
Cell Count ([1]; Erythromycin 10 ppm, 24 hr): 434
% Budding ([1]; Erythromycin 10 ppm, 48 hr): 5%
% Viable ([1]; Erythromycin 10 ppm, 48 hr): 61%
Cell Count ([1]; Erythromycin 10 ppm, 48 hr): 454
% Budding ([1]; Erythromycin 20 ppm, 24 hr): 7%
% Viable ([1]; Erythromycin 20 ppm, 24 hr): 85%
Cell Count ([1]; Erythromycin 20 ppm, 24 hr): 431
% Budding ([1]; Erythromycin 20 ppm, 48 hr): 4%
% Viable ([1]; Erythromycin 20 ppm, 48 hr): 62%
Cell Count ([1]; Erythromycin 20 ppm, 48 hr): 446
yeast growth with Erythromycin present vs without ([1]; at 48 hr): marginal better
adverse effect on the yeast ([1]; used up to 20 ppm): no discernable adverse effect
concentration effective against all organisms tested [2]: 0.5 ppm
decrease of lactic acid production during the erythromycin trial [3, 5]: 0.23%
increase of ethanol production during the erythromycin trial [3, 5]: 0.17%
production increase of ethanol per fermentor [3, 5]: 816 gallons of ethanol per fermentor
final ethanol production compared to Virginiamycin fermentors [3, 6]: increase in final ethanol production
glucose utilized compared to Virginiamycin fermentors [3, 6]: utilized the same amount of glucose
lactic acid compared to Virginiamycin fermentors [3, 6]: decrease in lactic acid
Acetic %, 27 batch average [3, 7]: 0.04%
EtOH %, 27 batch average [3, 7]: 15.84%
Glucose %, 27 batch average [3, 7]: 0.30%
Lactic %, 27 batch average [3, 7]: 0.27%
Acetic % ([3]; Set 2 “Erythromycin trial”, 0.5 ppm Erythromycin, single fermentor batch at drop): 0.03% and 0.04% and 0.05% and 0.02% and 0.06%

Virginiamycin
effectiveness against all organisms tested [2]: not effective against all organisms tested
inclusion rate up to which Pediococcus was not controlled [4]: > 3.0 ppm
Acetic %, 28 batch average [3, 8]: 0.04%
EtOH %, 28 batch average [3, 8]: 15.67%
Glucose %, 28 batch average [3, 8]: 0.29%
Lactic %, 28 batch average [3, 8]: 0.50%
Acetic % ([3]; Set 1 “Pre Erythromycin trial”, 0.5 ppm Virginiamycin, single fermentor batch at drop): 0.02% and 0.03% and 0.04% and 0.13% and 0.05%
Acetic %, 8 batch average [3, 9]: 0.04%
EtOH %, 8 batch average [3, 9]: 15.58%
Glucose %, 8 batch average [3, 9]: 0.32%
Lactic %, 8 batch average [3, 9]: 0.47%
Acetic % [3, 10]: 0.04% and 0.03% and 0.05%
EtOH % [3, 10]: 15.77% and 15.53% and 15.28% and 15.73% and 15.78% and 15.5% and 15.56% and 15.52%
Glucose % [3, 10]: 0.35% and 0.29% and 0.31% and 0.33% and 0.3% and 0.32%
Lactic % [3, 10]: 0.44% and 0.54% and 0.70% and 0.38% and 0.43% and 0.50% and 0.40%
